In ChEMBL document CHEMBL1743341, “Cytochrome p450 enzymes mechanism based inhibitors: common sub-structures and reactivity” (Curr Drug Metab, 2005):
Where “and” joins values, the source holds several entries; their conditions need not be identical. Identical values can stand only once.

Experiments:
[1] = molecular target: T1, Cytochrome P450 3A5 (Homo sapiens, UniProt P20815); assay: Mechanism based inhibition of human cytochrome P450 3A5, partition ratio; format: ADME
[2] = molecular target: T2, Cytochrome P450 3A4 (Homo sapiens, UniProt P08684); assay: Mechanism based inhibition of human cytochrome P450 3A4 measured by testosterone 6-beta hydroxylation and erythromycin N-demethylation; format: ADME
T2 sequence (P08684 whole entry): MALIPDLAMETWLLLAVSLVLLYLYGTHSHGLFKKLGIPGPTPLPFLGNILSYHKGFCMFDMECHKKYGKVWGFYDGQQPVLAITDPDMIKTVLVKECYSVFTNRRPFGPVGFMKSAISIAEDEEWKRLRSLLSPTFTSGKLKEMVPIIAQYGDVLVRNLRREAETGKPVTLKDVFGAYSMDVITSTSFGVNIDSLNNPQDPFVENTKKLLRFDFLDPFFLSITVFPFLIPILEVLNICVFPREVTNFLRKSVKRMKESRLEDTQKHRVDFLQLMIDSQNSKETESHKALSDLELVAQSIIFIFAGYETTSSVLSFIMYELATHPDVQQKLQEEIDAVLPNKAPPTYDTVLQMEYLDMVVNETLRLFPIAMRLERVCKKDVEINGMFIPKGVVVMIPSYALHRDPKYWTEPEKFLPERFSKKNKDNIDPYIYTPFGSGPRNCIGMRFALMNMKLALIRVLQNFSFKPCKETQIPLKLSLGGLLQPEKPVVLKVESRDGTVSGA

[3] = molecular target: T3, Cytochrome P450 2B6 (Homo sapiens, UniProt P20813); assay: Mechanism based inhibition of human cytochrome P450 2B6, partition ratio; format: ADME
T3 sequence (P20813 whole entry): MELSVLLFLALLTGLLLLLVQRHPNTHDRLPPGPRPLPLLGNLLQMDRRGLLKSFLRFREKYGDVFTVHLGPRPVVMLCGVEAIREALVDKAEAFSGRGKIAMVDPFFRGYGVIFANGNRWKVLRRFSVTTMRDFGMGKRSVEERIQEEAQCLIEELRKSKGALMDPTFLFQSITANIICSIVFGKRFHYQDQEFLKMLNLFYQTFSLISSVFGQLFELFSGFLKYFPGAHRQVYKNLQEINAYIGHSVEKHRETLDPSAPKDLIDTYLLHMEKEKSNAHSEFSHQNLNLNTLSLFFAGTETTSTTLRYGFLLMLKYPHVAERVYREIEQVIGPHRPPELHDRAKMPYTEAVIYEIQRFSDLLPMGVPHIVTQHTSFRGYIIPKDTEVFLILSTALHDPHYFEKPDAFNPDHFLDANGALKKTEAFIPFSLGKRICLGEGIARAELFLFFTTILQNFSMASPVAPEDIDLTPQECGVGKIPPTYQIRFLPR

[4] = molecular target: CYP2E1 (Homo sapiens, UniProt P05181); assay: (§1) Mechanism based inhibition of human cytochrome P450 2E1 measured in vivo; format: ADME, organism-based; conditions: human, in vivo
Sequence of CYP2E1 (P05181 whole entry): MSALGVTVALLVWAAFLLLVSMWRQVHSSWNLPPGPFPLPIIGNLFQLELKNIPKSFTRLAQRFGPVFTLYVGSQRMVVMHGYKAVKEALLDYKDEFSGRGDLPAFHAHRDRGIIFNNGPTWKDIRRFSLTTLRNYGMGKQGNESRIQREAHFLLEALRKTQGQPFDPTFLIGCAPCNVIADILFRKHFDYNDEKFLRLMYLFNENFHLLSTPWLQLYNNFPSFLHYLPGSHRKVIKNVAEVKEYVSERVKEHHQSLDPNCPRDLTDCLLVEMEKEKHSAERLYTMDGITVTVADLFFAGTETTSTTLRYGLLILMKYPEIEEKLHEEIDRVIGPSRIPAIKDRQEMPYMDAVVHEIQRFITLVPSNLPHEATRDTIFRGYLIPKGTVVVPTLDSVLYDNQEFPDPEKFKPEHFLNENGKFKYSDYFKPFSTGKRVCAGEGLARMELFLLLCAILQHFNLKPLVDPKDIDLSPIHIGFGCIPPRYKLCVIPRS

[5] = molecular target: Cytochrome P450 2E1 (Homo sapiens, UniProt P05181); assay: as §1; format: ADME, organism-based
Sequence of Cytochrome P450 2E1 (P05181 whole entry): as above

[6] = molecular target: T2, Cytochrome P450 3A4; assay: Mechanism based inhibition of human cytochrome P450 3A4 measured by testosterone 6-beta hydroxylation; format: ADME
[7] = molecular target: T4, CYP2B6 (Homo sapiens, UniProt P20813); assay: (§2) Mechanism based inhibition of human cytochrome P450 2B6; format: ADME; conditions: human
T4 sequence (P20813 whole entry): T3 sequence (P20813 whole entry)

[8] = molecular target: T3, Cytochrome P450 2B6; assay: as §2; format: ADME
[9] = molecular target: T5, CYP2B1 (Rattus norvegicus, UniProt P00176); assay: (§3) Mechanism based inhibition of rat cytochrome P450 2B1; format: ADME; conditions: rat
T5 sequence (P00176 whole entry): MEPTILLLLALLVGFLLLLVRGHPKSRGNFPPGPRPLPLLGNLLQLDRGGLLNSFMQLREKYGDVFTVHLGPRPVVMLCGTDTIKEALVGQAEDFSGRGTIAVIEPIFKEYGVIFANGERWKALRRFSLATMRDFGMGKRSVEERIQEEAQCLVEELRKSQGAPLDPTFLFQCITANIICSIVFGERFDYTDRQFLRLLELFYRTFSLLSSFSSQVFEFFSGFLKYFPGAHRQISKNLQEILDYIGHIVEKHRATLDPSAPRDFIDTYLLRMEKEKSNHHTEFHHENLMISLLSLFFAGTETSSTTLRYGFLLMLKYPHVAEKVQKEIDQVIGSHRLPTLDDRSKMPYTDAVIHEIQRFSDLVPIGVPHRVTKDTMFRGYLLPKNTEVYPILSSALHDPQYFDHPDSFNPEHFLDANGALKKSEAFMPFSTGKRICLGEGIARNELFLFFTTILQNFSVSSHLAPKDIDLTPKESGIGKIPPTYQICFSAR

[10] = molecular target: T6, Cytochrome P450 2B1 (Rattus norvegicus, UniProt P00176); assay: as §3; format: ADME
T6 sequence (P00176 whole entry): T5 sequence (P00176 whole entry)

[11] = molecular target: T7, CYP3A5 (Homo sapiens, UniProt P20815); assay: (§4) Mechanism based inhibition of human cytochrome P450 3A5; format: ADME; conditions: human
T7 sequence (P20815 whole entry): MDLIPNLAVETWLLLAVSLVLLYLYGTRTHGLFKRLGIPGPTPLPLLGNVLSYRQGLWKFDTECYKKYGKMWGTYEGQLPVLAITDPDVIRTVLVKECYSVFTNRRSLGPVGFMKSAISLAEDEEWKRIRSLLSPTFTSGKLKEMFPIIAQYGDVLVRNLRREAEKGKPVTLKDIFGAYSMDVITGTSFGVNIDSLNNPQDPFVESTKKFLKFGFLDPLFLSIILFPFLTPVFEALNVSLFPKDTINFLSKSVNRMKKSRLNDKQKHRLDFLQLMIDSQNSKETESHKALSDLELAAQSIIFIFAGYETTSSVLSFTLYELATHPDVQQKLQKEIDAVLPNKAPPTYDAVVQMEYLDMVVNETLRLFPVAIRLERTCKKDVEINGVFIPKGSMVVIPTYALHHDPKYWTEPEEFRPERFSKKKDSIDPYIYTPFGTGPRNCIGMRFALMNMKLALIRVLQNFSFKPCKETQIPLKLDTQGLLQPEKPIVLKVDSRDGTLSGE

[12] = molecular target: T1, Cytochrome P450 3A5; assay: as §4; format: ADME
[13] = molecular target: T8, Cytochrome P450 2B4 (Oryctolagus cuniculus, UniProt P00178); assay: (§5) Mechanism based inhibition of rabbit cytochrome P450 2B4; format: ADME
T8 sequence (P00178 whole entry): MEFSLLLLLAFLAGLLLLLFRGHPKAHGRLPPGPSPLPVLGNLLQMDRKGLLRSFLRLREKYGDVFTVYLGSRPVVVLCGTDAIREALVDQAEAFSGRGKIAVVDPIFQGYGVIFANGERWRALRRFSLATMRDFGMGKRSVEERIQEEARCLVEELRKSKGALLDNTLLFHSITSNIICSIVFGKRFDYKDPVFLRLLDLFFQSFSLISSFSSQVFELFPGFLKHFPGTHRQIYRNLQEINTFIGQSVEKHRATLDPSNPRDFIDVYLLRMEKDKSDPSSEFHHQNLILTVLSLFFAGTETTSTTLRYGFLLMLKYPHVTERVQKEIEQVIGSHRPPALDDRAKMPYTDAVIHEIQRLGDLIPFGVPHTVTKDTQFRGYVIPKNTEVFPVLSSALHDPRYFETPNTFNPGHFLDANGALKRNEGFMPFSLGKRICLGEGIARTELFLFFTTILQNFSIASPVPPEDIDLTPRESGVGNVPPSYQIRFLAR

[14] = molecular target: T9, CYP2B4 (Oryctolagus cuniculus, UniProt P00178); assay: as §5; format: ADME; conditions: rabbit
T9 sequence (P00178 whole entry): T8 sequence (P00178 whole entry)

[15] = molecular target: T10, CYP2A6 (Homo sapiens, UniProt P11509); assay: (§6) Mechanism based inhibition of human cytochrome P450 2A6 measured by coumarin 7-hydroxylation; format: ADME; conditions: human, probe coumarin (7-hydroxylation)
T10 sequence (P11509 whole entry): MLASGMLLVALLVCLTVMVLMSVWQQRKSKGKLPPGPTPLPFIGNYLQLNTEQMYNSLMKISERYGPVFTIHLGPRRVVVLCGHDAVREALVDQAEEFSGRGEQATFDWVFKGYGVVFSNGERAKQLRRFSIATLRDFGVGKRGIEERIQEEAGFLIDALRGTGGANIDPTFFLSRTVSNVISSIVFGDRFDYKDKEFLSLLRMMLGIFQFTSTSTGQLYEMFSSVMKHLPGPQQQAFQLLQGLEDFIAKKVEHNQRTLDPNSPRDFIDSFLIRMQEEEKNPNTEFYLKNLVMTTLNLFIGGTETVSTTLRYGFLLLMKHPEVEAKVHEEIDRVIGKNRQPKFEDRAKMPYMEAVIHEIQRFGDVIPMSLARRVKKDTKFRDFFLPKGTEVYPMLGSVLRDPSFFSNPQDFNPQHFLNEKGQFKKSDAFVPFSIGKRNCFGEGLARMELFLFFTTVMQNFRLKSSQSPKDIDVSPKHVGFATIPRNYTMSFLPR

[16] = molecular target: T11, Cytochrome P450 2A6 (Homo sapiens, UniProt P11509); assay: as §6; format: ADME
T11 sequence (P11509 whole entry): T10 sequence (P11509 whole entry)

[17] = molecular target: T3, Cytochrome P450 2B6; assay: Mechanism based inhibition of human cytochrome P450 2B6, partition ratio (value refers to P450 expressed in baculovirus infected insect cells); format: ADME
[18] = molecular target: T12, Cytochrome P450 3A6 (Oryctolagus cuniculus, UniProt P11707); assay: Mechanism based inhibition of rabbit cytochrome P450 3A6 measured by testosterone and progesterone 6-beta hydroxylation; format: ADME
T12 sequence (P11707 whole entry): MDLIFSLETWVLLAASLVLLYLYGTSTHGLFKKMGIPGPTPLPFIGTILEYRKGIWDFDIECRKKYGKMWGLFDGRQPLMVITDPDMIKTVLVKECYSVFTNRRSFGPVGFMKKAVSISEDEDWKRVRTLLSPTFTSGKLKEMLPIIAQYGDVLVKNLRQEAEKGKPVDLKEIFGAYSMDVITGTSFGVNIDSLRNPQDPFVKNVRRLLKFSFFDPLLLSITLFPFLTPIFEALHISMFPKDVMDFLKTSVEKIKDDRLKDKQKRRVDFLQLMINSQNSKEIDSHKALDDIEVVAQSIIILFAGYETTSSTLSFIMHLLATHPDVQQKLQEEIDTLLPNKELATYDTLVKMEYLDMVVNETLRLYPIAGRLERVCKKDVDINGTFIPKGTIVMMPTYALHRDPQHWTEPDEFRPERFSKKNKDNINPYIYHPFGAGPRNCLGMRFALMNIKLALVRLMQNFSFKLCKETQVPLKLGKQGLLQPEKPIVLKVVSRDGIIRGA

[19] = molecular target: T12, Cytochrome P450 3A6; assay: Mechanism based inhibition of rabbit cytochrome P450 3A6, partition ratio; format: ADME
[20] = molecular target: T6, Cytochrome P450 2B1; assay: Mechanism based inhibition of rat cytochrome P450 2B1 measured by 7-ethoxyresorufin O-deethylation (EROD); format: ADME
[21] = molecular target: T2, Cytochrome P450 3A4; assay: (§7) Mechanism based inhibition of human cytochrome P450 3A4 measured by testosterone hydroxylation; format: ADME
[22] = molecular target: T13, CYP3A4 (Homo sapiens, UniProt P08684); assay: as §7; format: ADME; conditions: human, probe testosterone (hydroxylation)
T13 sequence (P08684 whole entry): as the sequence (P08684 whole entry) above

[23] = molecular target: T7, CYP3A5; assay: (§8) Mechanism based inhibition of human cytochrome P450 3A5 measured by testosterone hydroxylation; format: ADME; conditions: human, probe testosterone (hydroxylation)
[24] = molecular target: T1, Cytochrome P450 3A5; assay: as §8; format: ADME
[25] = molecular target: T2, Cytochrome P450 3A4; assay: Mechanism based inhibition of human cytochrome P450 3A4 measured by transformation of triazolam into its alpha-hydroxy and 4-hydroxy metabolites; format: ADME
[26] = molecular target: T3, Cytochrome P450 2B6; assay: Mechanism based inhibition of human cytochrome P450 2B6, partition ratio (value refers to P450 expressed in lymphoblastoid cells); format: ADME, cell-based
[27] = molecular target: T13, CYP3A4; assay: Mechanism based inhibition of human cytochrome P450 3A4 measured by triazolam alpha- hydroxylation using human liver microsomes; format: ADME, Microsome; conditions: probe triazolam (alpha-hydroxylation)
[28] = molecular target: T13, CYP3A4; assay: Mechanism based inhibition of human cytochrome P450 3A4 measured by triazolam alpha- hydroxylation using recombinant CYP3A4; format: ADME; conditions: recombinant CYP3A4, probe triazolam (alpha-hydroxylation)
[29] = molecular target: T13, CYP3A4; assay: Mechanism based inhibition of human cytochrome P450 3A4 measured by triazolam 4- hydroxylation using human liver microsomes; format: ADME, Microsome; conditions: probe triazolam (4-hydroxylation)
[30] = molecular target: T13, CYP3A4; assay: Mechanism based inhibition of human cytochrome P450 3A4 measured by triazolam 4- hydroxylation using recombinant CYP3A4; format: ADME; conditions: recombinant CYP3A4, probe triazolam (4-hydroxylation)
[31] = molecular target: T6, Cytochrome P450 2B1; assay: Mechanism based inhibition of rat cytochrome P450 2B1 measured by 7-EFC O-deethylation
[32] = molecular target: T3, Cytochrome P450 2B6; assay: (§9) Mechanism based inhibition of human cytochrome P450 2B6 measured by 7-EFC O-deethylation
[33] = molecular target: T3, Cytochrome P450 2B6; assay: as §9; remark: listed apart in the source
[34] = molecular target: T2, Cytochrome P450 3A4; assay: Mechanism based inhibition of human cytochrome P450 3A4 measured by midazolam hydroxylation in vivo; format: ADME, organism-based
[35] = molecular target: T2, Cytochrome P450 3A4; assay: Mechanism based inhibition of human cytochrome P450 3A4 measured by midazolam hydroxylase activity; format: ADME

T1 sequence (P20815 whole entry): as the sequence (P20815 whole entry) above

CC(C)=CCC/C(C)=C/COc1c2ccoc2cc2oc(=O)ccc12 [BERGAMOTTIN]
Partition ratio [1]: 20
Ki [2]: 7.7 µM
Partition ratio [3]: 2
kinact [4]: 0.00133 s⁻¹
Ki [5]: 40 µM
mechanism based inhibition [6]: Cytochrome P450 mechanistic inhibitor: PMID 10859150
kinact [7]: 0.00145 s⁻¹
Ki [8]: 5.2 µM
kinact [9]: 0.000817 s⁻¹
Ki [10]: 2.4 µM
kinact [11]: 0.00075 s⁻¹
Ki [12]: 20 µM
Ki [13]: 2.8 µM
kinact [14]: 0.00113 s⁻¹

COc1c2ccoc2cc2oc(=O)ccc12 [BERGAPTEN]
kinact [15]: 0.006 s⁻¹
Ki [16]: 12 µM
Partition ratio [17]: 57.4

O=c1cc(-c2ccccc2)oc2c1ccc1ccccc12 [ALPHA-NAPHTHOFLAVONE]
Ki [18]: 80.1 µM
Partition ratio [19]: 21
mechanism based inhibition [6]: Cytochrome P450 mechanistic inhibitor: PMID 11640917

C#CCCCc1ccccc1
mechanism based inhibition [20]: Cytochrome P450 mechanistic inhibitor: PMID 9760279

CC(C)CN(C[C@@H](O)[C@H](Cc1ccccc1)NC(=O)O[C@H]1CCOC1)S(=O)(=O)c1ccc(N)cc1
Ki [21]: 0.26 µM
kinact [22]: 0.0122 s⁻¹
kinact [23]: 0.00583 s⁻¹
Ki [24]: 0.2 µM
mechanism based inhibition [25]: Cytochrome P450 mechanistic inhibitor: PMID 10952482

O=c1ccc2cc3ccoc3cc2o1 [PSORALEN]
kinact [15]: 0.005 s⁻¹
Ki [16]: 0.6 µM
Partition ratio [26]: 46 and 71.2

CC[C@H]1OC(=O)[C@H](C)[C@@H](O[C@H]2C[C@@](C)(OC)[C@@H](O)[C@H](C)O2)[C@H](C)[C@@H](O[C@@H]2O[C@H](C)C[C@H](N(C)C)[C@H]2O)[C@](C)(O)C[C@@H](C)C(=O)[C@H](C)[C@@H](O)[C@]1(C)O [ERYTHROMYCIN]
kinact [27]: 0.00103 s⁻¹
mechanism based inhibition [6]: Cytochrome P450 mechanistic inhibitor: PMID 9806945
kinact [28]: 0.00288 s⁻¹
kinact [29]: 0.000917 s⁻¹
kinact [30]: 0.00162 s⁻¹

C#C[C@]1(O)CC[C@H]2[C@@H]3CCc4cc(O)ccc4[C@H]3CC[C@@]21C [ETHINYL ESTRADIOL]
Ki [31]: 11 µM
Ki [32]: 0.8 µM
Ki [33]: 0.9 µM
mechanism based inhibition [34]: Cytochrome P450 mechanistic inhibitor: PMID 11012556

CNCCN1C(=O)[C@H](OC(C)=O)[C@H](c2ccc(OC)cc2)Sc2ccccc21
mechanism based inhibition [35]: Cytochrome P450 mechanistic inhibitor: PMID 10454485
